Reference: ChEMBL document CHEMBL1125116 (J Med Chem, 1990)

Key:
D(2) dopamine receptor [1] = molecular target: T1, D(2) dopamine receptor (Rattus norvegicus, UniProt P61169); assay: Competitive binding assay against Dopamine receptor D2 in rat striatal membranes and [125I]-IBF radioligand; type: cell membranes, Striatum, Membrane
D(2) dopamine receptor [2] = molecular target: T1, D(2) dopamine receptor; assay: Evaluated in vitro for the affinity towards Dopamine receptor D2 of rat striatal tissue

T1 sequence (P61169 whole entry): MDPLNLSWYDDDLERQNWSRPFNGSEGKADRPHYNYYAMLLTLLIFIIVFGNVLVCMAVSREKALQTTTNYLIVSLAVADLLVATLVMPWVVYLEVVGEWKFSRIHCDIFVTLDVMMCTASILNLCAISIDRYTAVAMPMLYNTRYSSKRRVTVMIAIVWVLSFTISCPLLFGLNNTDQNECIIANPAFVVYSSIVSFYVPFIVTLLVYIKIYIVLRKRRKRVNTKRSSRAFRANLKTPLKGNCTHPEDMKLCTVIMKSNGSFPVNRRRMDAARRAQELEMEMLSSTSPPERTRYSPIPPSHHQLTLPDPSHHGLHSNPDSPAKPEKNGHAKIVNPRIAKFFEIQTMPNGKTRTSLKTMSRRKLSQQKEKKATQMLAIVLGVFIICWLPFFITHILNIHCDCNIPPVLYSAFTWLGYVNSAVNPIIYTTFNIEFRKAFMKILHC

With `NC1CCc2cc(O)c(O)cc2C1` (racemic) the Ki (D(2) dopamine receptor [1]) was 65.7 nM.

`COc1cc(N=[N+]=[N-])c(I)cc1C(=O)NC1CCN(Cc2ccccc2)CC1` [IODOAZIDOCLEBOPRIDE] was tested, and the Kd (D(2) dopamine receptor [2]) was 14 nM.
